Assays:
[1] = Ferric reducing antioxidant potential (FRAP) assay; conditions: 1 mg/mL
Description: FRAP assay was used to assess the […] of the extracts and phytocompounds with slight modification in a previously reported method. For the assay, the extract (1 mg/mL) was incubated with 200 μL of FRAP reagent, and the reduction of ferric tripyridyltriazine was monitored at 593 nm (Multimode reader, Synergy-H1 BioTek, Agilent, USA). Ascorbic acid (2 μg/mL) was used as a positive control. FRAP values of the extracts and phytocompounds were calculated from the standard curve of FeSO4 (15–250 μM) and expressed as μM Fe^2+/g.

Aβ1–42 = target: T1, Aβ1–42 (Homo sapiens, UniProt P05067); assay: Anti-Aβ1–42 oligomerization, multimeric detection system (MDS); type: biochemical; conditions: vs negative control (Buffer + Aβ)
T1 construct: Aβ1–42 for MDS (GenicBio Inc., Shanghai, China); purchased GenicBio Inc
Description: The anti-Aβ1–42 oligomerization and fibrilization activity of the extracts/bioactives were measured by Multiple Detection System (MDS) and ThT assay, respectively. Briefly, the extracts and phytocompounds were incubated with Aβ1–42 at RT for different time points (0 h, 2 h, and 4 h). The samples were incubated on an anti-β-amyloid pre-coated plate for 1 h at RT. An HRP-conjugated W0–2 monoclonal antibody was added, and the plate was kept at RT for 30 min. Later, TMB was added, and the plate was incubated for 15 min at RT. The absorbance was read at 450 nm using a microplate reader (Victor3, PerkinElmer, Shelton, CT, USA)

[2] = test system: SH-SY5Y neuroblastoma cell line; assay: Cell viability / cytotoxicity assay (WST-8); type: cell-based, Human
Description: (§1) Human neuroblastoma SH-SY5Y cells (ATCC CRL-2266, Manassas, VA, USA) were maintained in Dulbecco’s modified Eagle’s medium (DMEM, Gibco) supplemented with 10% fetal bovine serum (FBS), 1% kanamycin, and 1% penicillin (Thermo Fisher Scientific, Waltham, MA, USA) at 37 °C with 5% CO2, and a 95% humidified atmosphere in the incubator. The experiments were executed at 80–90% cell confluency.
The cells were seeded (1 × 10^4 cells/well) in 96-well sterile plates and pre-treated with various extract concentrations (1, 10, 30 µg/mL) for 24 h. The extracts and phytocompounds were removed and incubated for 2 h with 10% WST-8 reagent (Roche, Grenzach-Wyhlen, Germany) as described previously. The absorbance was determined at 450 nm in a multi-plate reader (Synergy-H1 BioTek, Agilent, USA). The percent cytotoxicity was calculated as:Cytotoxicity % = (Ac − At)/(Ac) × 100 where Ac = absorbance of the control cells, At = absorbance of the treated cells.
The plot of percent cytotoxicity versus sample concentration was used to calculate the extract concentration that killed 50% of the cells (IC50).

[3] = test system: H2O2-induced neuroblastoma SH-SY5Y cells; assay: Neuroprotection assay against H2O2-induced oxidative stress (WST-8); type: cell-based, Human; conditions: Homo sapiens, SH-SY5Y; 30 µg/mL; 12 h pre-treatment, 1 h H2O2 100 µM; read-out: % cell viability, H2O2-induced SH-SY5Y
Description: as §1
The neuroprotective effect of extracts and phytocompounds on H2O2-induced oxidative stress in SH-SY5Y by a previously described method. The cells (1 × 10^4 cells/well) were seeded in a 96-well sterile plate. After stabilization, the cells were pre-treated with the extracts and phytocompounds for 24 h. The extracts and phytocompounds were removed and treated with H2O2 (100 μM) for 6 h. A solvent control, H2O2 alone, and extract alone treatments were also included. After incubation, the % cell viability was measured using WST-8 reagent in triplicate experiments.

[4] = test system: H2O2-induced ROS production in SH-SY5Y cells; assay: Intracellular ROS measurement (H2DCFDA); type: cell-based, Human; conditions: 12 h pre-treatment, H2O2 100 µM 2 h, H2O2 alone 156.96 ± 5.07%
Description: as §1
The cells (1 × 10^4 cells/well) were seeded in a 96-well sterile plate, after which they were pre-treated with the extract for 12 h. […] The fluorescence intensity (Ex 495 nm, Ems 520 nm) was measured by a microplate reader (Synergy-H1 BioTek, Agilent, USA). The ROS was calculated as a percentage of the untreated control cells (100%) in triplicate measurements.

SH-SY5Y cells = assay: Mitochondrial membrane potential (ΔΨm) assay (TMRE); type: cell-based, Human; conditions: 12 h pre-treatment, 200 μM H2O2 2 h
Description: as §1
The mitochondrial membrane potential was measured using the tetramethylrhodamine, methyl ester (TMRE) staining method. The cells (1 × 10^4 cells/well) were seeded in a 96-well sterile plate; after which, they were pre-treated with the extract for 12 h. The extracts and phytocompounds were removed, followed by a 2 h treatment with H2O2 (200 μM). A 1 μM amount of TMRE was added to the cells and incubated for 1 h at 37 °C. The fluorescence was assessed (Ex 549 nm, Ems 575 nm) using a microplate reader (Synergy-H1 BioTek, Agilent, USA). The ΔΨm was calculated as a percentage of the untreated control cells (100%) in triplicate measurements.

SH-SY5Y cells lysate = assay: Malondialdehyde (MDA) in cell lysate (TBA:TCA); type: cell-based, Human; conditions: 24 h pre-treatment, 6 h H2O2 100 μM
Description: as §1
The cells (5 × 10^4 cells/well) were seeded in a 6-well sterile plate and incubated for 18–24 h. After stabilization, cells were pre-treated with the extracts and phytocompounds for 24 h before 6 h incubation with H2O2 (100 μM). The culture media was removed, and the cells were washed with cold PBS (1X). The cells were placed on ice and incubated with pre-chilled RIPA buffer for 10 min. Transfer the lysate in microfuge tubes and centrifuge (Labogene 1730R, BMS, Paju-si, Republic of Korea) for 10 min at 20,000× g, 4 °C. The supernatant was collected and stored at −80 °C.
MDA levels were measured using TBA: TCA reagent as described previously. In the reaction, MDA reacts with two molecules of thiobarbituric acid (TBA) to give a pink pigment that absorbs at 532 nm. The standard curve of MDA (1–100 μM) was used to calculate lipid peroxidation in the lysate.

AChE = conditions: cited from earlier work
rodent models = conditions: cited from earlier work
[5] = cited from earlier work

T1 sequence (P05067 672-713): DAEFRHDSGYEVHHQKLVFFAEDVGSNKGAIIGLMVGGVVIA

C=C(C)[C@H]1CC=C(C)C(=O)C1 [carvone, D-carvone]
FRAP value [1]: 43.25 ± 2.50 µM Fe^2+/g | Aβ oligomerization reduction (relative amount of Aβ oligomers) (Aβ1–42; 2 h incubation): statistically significant | Aβ oligomerization reduction (relative amount of Aβ oligomers) (Aβ1–42; 4 h incubation): statistically significant | Cytotoxicity (cell viability) in SH-SY5Y [2]: No significant difference | viability at 30 µg/mL [3]: 70.5 ± 1.67% | ROS level (% of untreated cells) ([4]; 1 µg/mL): 122.82 ± 6.63% | ROS level (% of untreated cells) ([4]; 10 µg/mL): 110.70 ± 4.90% | ROS level (% of untreated cells) ([4]; 30 µg/mL): 107.11 ± 8.34% | MMP (% ΔΨm vs untreated cells) (SH-SY5Y cells; 0.1 µg/mL): 71.61 ± 0.70% | MMP (% ΔΨm vs untreated cells) (SH-SY5Y cells; 1 µg/mL): 80.80 ± 1.20% | MMP (% ΔΨm vs untreated cells) (SH-SY5Y cells; 10 µg/mL): 85.18 ± 4.96% | MMP (% ΔΨm vs untreated cells) (SH-SY5Y cells; 30 µg/mL): 87.19 ± 6.26% | MDA level (SH-SY5Y cells lysate; 0.1 µg/mL): 1.71 µM | MDA level (SH-SY5Y cells lysate; 1 and 10 µg/mL): ~ 1.33 µM | AChE inhibition (AChE; at 1 mg/mL): 23.6% | AChE IC50 (AChE): 835.2 µg/mL | IC50 (AChE): 5.56 mM | Ki (AChE; ref Grundy et al. 51): 0.68 mM | LD50 (rodent models): 1640 mg/kg | BBB permeability [5]: can cross BBB

— PMC11241255 (International Journal of Molecular Sciences, 2024)
